According to patent US20080200433A1, “Molecular Chaperone Function Regulator” (priority 2004, published 2008):

Experiments:
HSP70 [1] = test: Induction of HSP70 in T-47D cells (Western blot); assay type: cell-based, human; conditions: 10 μM, 9 hr; for HSP70 expression, Experiment 2 (T/C, %): control = 100, Experiment 2; for HSP70 expression, Experiment 1 (T/C, %): control = 100, Experiment 1
Procedure: (Method) T-47D cells were cultured in a 12-well plate and, at the time point when the cells grew to about 70-80%, compounds A, B, C, D, E and F were each added to 10 μM.
(§1) DMSO (0.1%) was added to the control. After the addition, the cells were collected 9 hr later and cell extracts were prepared. Expression of HSP70 protein in the cell extracts was examined by Western blot using an HSP70 specific antibody. T/C (%) was determined using the amount of chemical luminescence on a PVDF film due to an HRP-labeled secondary antibody as the HSP70 expression amount and HSP70 expression amount of the cells in the control well as 100.

ubiquitinated protein = test: Induction of ubiquitinated protein in T-47D cells (Western blot); assay type: cell-based, human; conditions: vs DMSO control (FIG. 7)
Procedure: DMSO (0.1%) was added to the control. After the addition, the cells were collected 1, 3, 6 and 24 hr later and cell extracts were prepared. Expression of ubiquitinated protein in the cell extracts was examined by Western blot using a ubiquitin specific antibody. T/C (%) was determined using the amount of chemical luminescence on a PVDF film due to an HRP-labeled secondary antibody as the ubiquitinated protein expression amount and the expression amount of the cell extract in the control well as 100.

HSP70 [2] = test: Induction of HSP70 in various human tumor-derived cells (Western blot); assay type: cell-based; conditions: TE-8, NCI-H520, HPAC, DU145, KPL-4, MKN-45, HL-60 and DLD-1 cells, 10 μM, 9 hr, vs DMSO control (FIG. 2)
Procedure: (Method) As to the induction of HSP70 by compound A, induction in various human tumor cells was examined.
TE-8 cell, NCI-H520 cell, HPAC cell, DU145 cell, KPL-4 cell, MKN-45 cell, HL-60 cell and DLD-1 cell were each were cultured in a 12-well plate.
DMSO (0.1%) was added to a control well. After the addition, the cells were collected 9 hr later and cell extracts were prepared. Expression of HSP70 protein in the tumor cell extracts was examined by Western blot using an HSP70 specific antibody.

[3] = tested on: human prostate cancer-derived DU 145 cells; test: Cell growth suppression by combined hyperthermic treatment and compound (XTT); assay type: cell-based; conditions: 0.37-10 μM, 43° C. 4 hr vs 37° C., then 24 hr culture, XTT (FIG. 5)
Procedure: (Method) Using human prostate cancer-derived DU 145 cells, the effect of compound A on the cell growth suppressive action during hyperthermic treatment was examined. DU 145 cells were cultured at 1×10^4 cells/well in two 96 well plates. The next day, compound A was added to each plate to 0.37, 1.1, 3.3 and 10 μM, one plate was incubated for 4 hr in a 5% CO2 incubator set to 43° C. (heat treatment), and the other plate was incubated in the same manner for 4 hr in a 5% CO2 incubator set to 37° C. After 4 hr, the wells were washed 3 times with saline, a growth medium was added and cultured in a 5% CO2 incubator at 37° C. for 24 hr.
The cell growth activity was measured by the dye method using XTT as in Example 4. That is, after the culture, XTT was added to each well and, 4 hr later, the absorbance at 492 nm was measured.
T/C (%) was determined from the following formula with the absorbance of the control well in the plate without the heat treatment as 100.
T/C (%)=[absorbance of heat-treated control well or compound-treated well÷absorbance of control well without heat treatment]×100

[4] = tested on: client proteins EGFR, HER2, ERα, AR, AKT and CDK4 of HSP90 chaperone; test: Suppressive action on HSP90 client protein expression in MCF-7 cells (Western blot); assay type: cell-based, human; conditions: 10 μM, 24 hr, vs DMSO control (FIG. 3)
Procedure: After the addition of the compound, the cells were collected and divided in two 24 hr later. Cell extracts were prepared from half the cells, and cytoplasmic fraction and nuclear fraction were prepared from the remaining half. […] Expression of client in each tumor cell extract and nuclear fraction was examined by Western blot using an antibody specific to each client.

[5] = tested on: human breast cancer-derived MCF-7 cell; test: Suppressive effect on estradiol (E2)-dependent cell growth (XTT); assay type: cell-based; conditions: 10 nM E2, Day 10, XTT; compound A 0.037-3 μM, tamoxifen 0.062-5 μM (FIG. 4)
Source text: (Method) Using human breast cancer-derived MCF-7 cell that expresses estrogen receptor and grows in response to estradiol (E2, 17β-Estradiol, Cat. #E 1024, Sigma Ltd.), the effect of compound A on the cell growth in the presence of E2 was examined. As the control compound, tamoxifen (Cancer Res., 62, 2474-2477, 2002) (Cat. #T 9262, Sigma Ltd.) known to suppress growth of human breast cancer-derived MCF-7 cell by E2 stimulation was used. MCF-7 cells were suspended in a phenol red non-addition DME-F12 mixed medium containing 5% fetal calf serum treated with activated carbon, and cultured at 2×10^4 cells/well in a 24 well plate. […]
The cell growth activity was measured on Day 10 by the dye method using XTT.
That is, after the completion of the culture, XTT was added to each well and, after color development for 4 hr, the reaction mixture was transferred to a 96 well plate, and the absorbance at 492 nm was measured.
The suppression rate was calculated from the following formula.
Suppression rate (%)={1−[(absorbance of compound addition well in the presence of E2)−(absorbance of control well without E2 addition)]÷[(absorbance of control well in the presence of E2)−(absorbance of control well without E2 addition)]×100

HSP70 [6] = test: Time-dependent HSP70 induction in A-431 cells (Western blot); assay type: cell-based, human; conditions: 10 μM, vs DMSO control (FIG. 1)
Procedure: as §1, with “6, 9, 12 and 24” for “9”

[7] = tested on: human breast cancer-derived MCF-7 implanted in nude mouse; test: Antitumor effect on human breast cancer-derived MCF-7 implanted in nude mouse; assay type: in vivo; conditions: 100 mg/kg orally once a day for 2 weeks, vs solvent control, Dunnett's test p<0.05 (FIG. 6)
Procedure: (Method) Human breast cancer-derived MCF-7 cells were subcutaneously implanted in female nude mouse purchased from CLEA Japan, Inc. The effect of compound A on the growth was examined. A 17β-estradiol solution was added dropwise to a small piece of glass microfibre filter GF/B (Whatman, #1821 05) to give a pellet (500 μg/filter). The pellet was subcutaneously implanted in the neck of female Balb/c nude mouse, and MCF-7 cells were subcutaneously implanted in the right back at 5×10^6 cells/mouse. From 7 days after the implantation, compound A was orally administered at 30 mg/kg and 100 mg/kg to nude mice (5 per group) once a day for 2 weeks.
The 0.5% tragacanth solution used as a solvent was similarly administered to the control. The next day of the final administration, the nude mice were sacrificed under anesthesia, and the subcutaneous tumor was isolated and weighed. The mean tumor weight and standard error of each group were calculated, and statistically analyzed by the Dunnett's test and using the solvent administration group as a control.

C=CC(=O)Nc1cc2c(Nc3ccc(F)c(Cl)c3)ncnc2cc1C#CC(C)(C)N1CCN(CCOC)CC1 [B, N-([4-(3-Chloro-4-fluorophenyl)amino]-7-{3-[4-(2-methoxyethyl)-1-piperazinyl]-3-methyl-1-butynyl}-6-quinazolinyl)acrylamide]
HSP70 expression, Experiment 2 (T/C, %) (HSP70 [1]): 482%

C=CC(=O)Nc1cc2c(Nc3ccc(F)c(Cl)c3)ncnc2cc1C#CCN1CCN(C)CC1 [C, N-{4-[(3-Chloro-4-fluorophenyl)amino]-7-[3-(4-methyl-1-piperazinyl)-1-propynyl]-6-quinazolinyl}acrylamide]
HSP70 expression, Experiment 1 (T/C, %) (HSP70 [1]): 207%

C=CC(=O)Nc1cc2c(Nc3cccc(C#N)c3)ncnc2cc1C#CC(C)(C)N1CCN(C)CC1 [D, N-{4-[(3-Cyano-phenyl)amino]-7-[3-methyl-3-(4-methyl-1-piperazinyl)-1-butynyl]-6-quinazolinyl}acrylamide]
HSP70 expression, Experiment 2 (T/C, %) (HSP70 [1]): 446%

C=CC(=O)Nc1cc2c(Nc3ccc(F)c(Cl)c3)ncnc2cc1C#CC1(N2CCN(C)CC2)CCOCC1 [E, N-{4-[(3-Chloro-4-fluorophenyl)amino]-7-[4-(4-methyl-1-piperazinyl)-4-tetrahydropyranylethynyl]-6-quinazolinyl}acrylamide]
HSP70 expression, Experiment 1 (T/C, %) (HSP70 [1]): 172%

CCOc1cc2ncnc(Nc3ccc(F)c(Cl)c3)c2cc1C#CC(C)(C)N(C)C1CCN(C)CC1 [F, (3-Chloro-4-fluorophenyl)-(7-ethoxy-6-{3-methyl-3-[methyl-(1-methyl-4-piperidinyl)amino]-1-butynyl}-4-quinazolinyl)amine]
HSP70 expression, Experiment 1 (T/C, %) (HSP70 [1]): 141%

CC(C)C[C@H](NC(=O)[C@H](Cc1ccccc1)NC(=O)c1cnccn1)B(O)O [bortezomib, reference compound]
amount of ubiquitinated protein (ubiquitinated protein; 3 μM, 1, 3, 6 and 24 hr): remarkably appeared from 3 hr after the treatment

C=CC(=O)Nc1cc2c(Nc3ccc(F)c(Cl)c3)ncnc2cc1C#CC(C)(C)N1CCN(C)CC1 [compound A]
HSP70 expression (HSP70 [2]): increased
HSP70 expression, Experiment 1 (T/C, %) (HSP70 [1]): 299%
HSP70 expression, Experiment 2 (T/C, %) (HSP70 [1]): 895%
cell death due to heat shock [3]: cell death due to heat shock is enhanced
expression of HSP90 client proteins [4]: decreased expression
growth of MCF-7 cells by E2 stimulation [5]: suppresses the growth
expression of HSP70 (HSP70 [6]; 6 hr to 12 hr after treatment): increased in a time-dependent manner
expression of HSP70 (HSP70 [6]; 24 hr after treatment): markedly decreased
amount of ubiquitinated protein (ubiquitinated protein; 1 μM, 1, 3, 6 and 24 hr): did not occur until after 24 hr
amount of ubiquitinated protein (ubiquitinated protein; 3 μM, 1, 3, 6 and 24 hr): increased from 6 hr after the treatment
amount of ubiquitinated protein (ubiquitinated protein; 10 μM, 1, 3, 6 and 24 hr): increased from 6 hr after the treatment
tumor weight [7]: significantly decreased

COc1cc2ncnc(Nc3ccc(F)c(Cl)c3)c2cc1OCCCN1CCOCC1 [gefinitib, 4-(3′-Chloro-4′-fluoroanilino)-7-methoxy-6-(3-morpholinopropoxy)quinazoline, reference compound]
HSP70 expression (HSP70 [2]): did not show a clear increase

CC/C(=C(\c1ccccc1)c1ccc(OCCN(C)C)cc1)c1ccccc1 [tamoxifen, reference compound]
growth of MCF-7 cells by E2 stimulation [5]: suppresses the growth
